The values that follow come from US20230286927A1, “2-PHENYLBENZOTRIAZOL-5-AMINE DERIVATIVES FOR THE TREATMENT AND PROPHYLAXIS OF HEPATITIS B VIRUS (HBV) INFECTION” (priority 2020, published 2023).

The test system of one data set is HBsAg. Put plainly: PHH natural infection assay, HBsAg (alphalisa). The note with it: Hepatitis B virus, Hepatocyte, 72 h, read-out: HBsAg IC50. The format is cell-based, HBV. How it is done:
(§1) Detailed procedures regarding primary human hepatocyte (PHH) HBV natural infection assay are described as below. One tube of frozen PHH (10 million cells) is thawed in 37° C. water bath and then transferred to 20 mL of PHH thawing medium (Sigma, InVitroGRO HT Medium, Cat. S03319) with gently mixing. The cells were then centrifuged at […] for 5 min, the supernatant was discarded and the tube was refilled with 25 mL of PHH plating medium (Sigma, InVitroGRO CP Medium, Cat. S03317). The tube was shaken very gently to re-suspend all cells, and then 50 μl of cells were transferred to each well 384-well collagen I coated plate with appropriate liquid handling equipment, e.g. Integra VIAFLO384 or Agilent Bravo. The cells were then cultured for 24 hours in a cell incubator. For HBV infection, after PHH attachment on the culture plate, the plating medium was removed and replenished with PHH culture medium containing HBV virus. The PHH culture medium was prepared with Dulbecco's Modified Eagle Medium (DMEM)/F12 (1:1 in volume ratio) containing 10% fetal bovine serum (Gibco, Cat. 10099141), 5 ng/mL human epidermal growth factor (Gibco, Cat.PHG031IL), 20 ng/mL dexamethasone (Sigma, Cat.D4902-100 mg), 250 ng/mL human recombinant insulin (Gibco, Cat.41400045) and 100 U/mL penicillin. HBV virus at 200 genome equivalent (GE) per cell with 4% PEG8000 (Sigma, Cat.P1458) containing culture medium were added to the PHH culture medium for infection. The cells were then cultured for 24 hours in cell incubator. Then the cell culture supernatant was removed. The HBV-infected PHH were cultured with sandwich culture method with PHH culture medium containing 1% DMSO and 0.25 mg/mL matrix gel for 72 hours. The supernatant was then refreshed with PHH culture medium containing different concentrations of testing compounds for two times with 72-hour interval. At the end of treatment, the supernatant was collected for viral markers measurements, including HBsAg, HBeAg, HBV DNA and cytotoxicity. HBsAg and HBeAg were detected using alphalisa method using their specific antibodies. For HBV DNA detection, HBV DNA Quantitative Fluorescence Diagnostic Kit (Sansure Biotech Inc.) was used following the manufacture's protocol. Cytotoxicity was determined using Cell Counting Kit-8 (CCK8, Dojindo Molecular Technologies, Inc.).
(§2) The compounds of the present invention were tested for their capacity to inhibit HBsAg and HBeAg as described herein.
(Alpha assays give light when donor and acceptor beads are brought close together.)

Another data set has as its system HBeAg. Put plainly: PHH natural infection assay, HBeAg (alphalisa). The format is cell-based, HBV. Conditions: Hepatitis B virus, Hepatocyte, 72 h, read-out: HBeAg IC50. How it is done:
as §1, §2

Data set [1] can be described thus: Cytotoxicity in PHH natural infection assay (Cell Counting Kit-8). The format is cell-based. Conditions: HBV-infected primary human hepatocytes, CCK8. How it is done: as §1

What is called IC50 is the concentration that inhibits the measured activity by half. As usually defined, the CC50 is the concentration giving 50% cytotoxicity. The low end stands for greater toxicity to the cells, the high end for lower toxicity to the cells.

`Nc1ccc2nn(-c3ccc(F)cc3)nc2c1` [Example 4, 2-(4-Fluorophenyl)benzotriazol-5-amine]: the results for the IC50 in the data set on HBsAg and with HBeAg were 5.04 µM and 5.29 µM, respectively. The same compound gave a CC50 at 144 h in data set [1] of over 100 µM.

For the compound `Cc1cc2nn(-c3ccc(Cl)cc3)nc2cc1NC(=S)NC(=O)c1ccccc1` [Example 59, N-[[2-(4-chlorophenyl)-6-methyl-benzotriazol-5-yl]carbamothioyl]benzamide], the IC50 is 1.11 µM in the data set on HBsAg and 3.04 µM with HBeAg. The compound also showed a CC50 at 144 h in data set [1] of over 100 µM.

Consider `COCCNc1ccc2nn(-c3ccc(S(C)(=O)=O)cc3)nc2c1` [Example 19, N-(2-methoxyethyl)-2-(4-methylsulfonylphenyl)benzotriazol-5-amine], for which the results for the IC50 in the data set on HBsAg and in the data set on HBeAg were 8.94 µM and 6.97 µM, respectively. The CC50 at 144 h in data set [1] is over 100 µM.

Consider `O=C(Nc1ccc2nn(-c3ccc(Cl)cc3)nc2c1)C1CCOCC1` [Example 45, N-[2-(4-chlorophenyl)benzotriazol-5-yl]tetrahydropyran-4-carboxamide], for which the values for the concentration for half-maximal inhibition (IC50) with HBsAg and in the data set on HBeAg were 3.39 µM and 1.98 µM, respectively. This compound came in with a CC50 at 144 h in data set [1] of over 100 µM.

`O=C(Nc1ccc2nn(-c3ccc(Cl)cc3)nc2c1)C1CCCO1` (stereo not drawn) [Example 50, N-[2-(4-chlorophenyl)benzotriazol-5-yl]tetrahydrofuran-2-carboxamide]: the IC50 stood at 1.26 µM in the data set with HBsAg and 1.37 µM in the data set with HBeAg. The half-maximal cytotoxic concentration (CC50) at 144 h in data set [1] is over 100 µM.

Consider `CNC(=O)CCNc1ccc2nn(-c3ccc(Cl)cc3)nc2c1` [Example 37, 3-[[2-(4-Chlorophenyl)benzotriazol-5-yl]amino]-N-methyl-propanamide], for which the figures for the half-inhibitory concentration (IC50) with HBsAg and with HBeAg were 4.64 µM and 8.68 µM, respectively. This compound gave a CC50 at 144 h in data set [1] of over 100 µM.

For the compound `O=C(CCC(F)(F)F)Nc1ccc2nn(-c3ccc(Cl)cc3)nc2c1` [Example 52, N-[2-(4-chlorophenyl)benzotriazol-5-yl]-4,4,4-trifluoro-butanamide], the IC50 in the data set with HBsAg was 2.25 µM; in the data set on HBeAg, 1.89 µM. The CC50 at 144 h in data set [1] was over 100 µM.
